The target of one series is T1, rat CB2 receptor (rCB2) (Rattus norvegicus, UniProt Q9QZN9).
T1 sequence (Q9QZN9 1-360): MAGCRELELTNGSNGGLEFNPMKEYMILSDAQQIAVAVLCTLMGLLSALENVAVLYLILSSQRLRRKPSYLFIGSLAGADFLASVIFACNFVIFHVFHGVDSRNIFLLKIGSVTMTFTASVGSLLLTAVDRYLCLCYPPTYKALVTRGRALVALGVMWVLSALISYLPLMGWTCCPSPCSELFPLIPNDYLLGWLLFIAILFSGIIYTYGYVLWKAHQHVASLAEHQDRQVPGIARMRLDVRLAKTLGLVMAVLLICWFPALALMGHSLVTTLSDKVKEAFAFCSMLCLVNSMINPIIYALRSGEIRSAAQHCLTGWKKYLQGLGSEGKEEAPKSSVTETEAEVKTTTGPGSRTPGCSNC

The subject of a further series is Male Sprague-Dawley rats. Briefly: Complete Freund's Adjuvant (CFA) model of inflammatory pain, Randall-Selitto paw pressure. Format: in vivo. To be noted: rat, intraperitoneal. As to the method: Male Sprague-Dawley rats (Hsd:Sprague-Dawley®™ SD®™, Harlan, Indianapolis, Ind.) weighing 201±1 grams, were housed three per cage. Animals had free access to food and water and were maintained on a twelve hour light/dark schedule for the entire duration of the experiment. Approximately 12 hours prior to behavioral testing, animals were placed on wire mesh bottom cages with free access to water but no access to food. Test compounds were prepared in 50% PEG-400 (Sigma-Aldrich, cat. P3265). Indomethacin (Fluka, cat 57413) was suspended in 0.5% methylcellulose (Sigma-Aldrich, cat. 274429). Groups of eight animals were anesthetized with 2-3% isoflurane and local inflammation induced by 50 μl CFA (Sigma-Aldrich, cat F5881, Mycobacterium tuberculosis 1 mg/ml) injected subcutaneously into the plantar surface of the left paw.
Assessment of mechanical hyperalgesia: Baseline and post-treatment withdrawal thresholds to a noxious mechanical stimulus were measured using the Randall-Selitto paw pressure apparatus (Ugo Basile Analgesymeter, model 7200). […] Mechanical hyperalgesia was measured using the Randall-Selitto paw pressure device before CFA injection and after intraperitoneal (i.p.) compound administration over a twenty-four-hour period. The mean and standard error of the mean (SEM) were determined for the injured and normal paws for each treatment group.

In series [1] the target is human CB1 receptor (hCB1) (Homo sapiens, UniProt P21554). Format: cell-based.
Sequence of human CB1 receptor (hCB1) (P21554 whole entry): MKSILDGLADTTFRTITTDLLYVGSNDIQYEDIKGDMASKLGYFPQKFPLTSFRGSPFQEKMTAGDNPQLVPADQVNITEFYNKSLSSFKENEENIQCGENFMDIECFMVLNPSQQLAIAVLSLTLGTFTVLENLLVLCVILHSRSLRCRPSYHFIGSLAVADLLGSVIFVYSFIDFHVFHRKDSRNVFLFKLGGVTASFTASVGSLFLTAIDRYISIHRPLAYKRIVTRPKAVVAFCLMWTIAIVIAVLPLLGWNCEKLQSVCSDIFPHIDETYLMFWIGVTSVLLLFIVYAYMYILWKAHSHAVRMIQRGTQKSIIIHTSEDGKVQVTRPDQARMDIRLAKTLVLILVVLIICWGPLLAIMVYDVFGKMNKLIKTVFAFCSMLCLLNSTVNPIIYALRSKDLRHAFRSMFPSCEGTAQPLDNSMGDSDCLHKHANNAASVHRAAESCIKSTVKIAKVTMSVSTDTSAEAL

pEC50: −log10 of the molar value.

Turning to `CCS(=O)(=O)N1CCn2c(-c3ccccc3)nc(C(=O)N[C@H](C(=O)NC)C(C)(C)C)c2C1` [Compound 91, (S)—N-(3,3-dimethyl-1-(methylamino)-1-oxobutan-2-yl)-7-(ethylsulfonyl)-3-phenyl-5,6,7,8-tetrahydroimidazo[1,5-a]pyrazine-1-carboxamide], the pEC50 on rat CB2 receptor (rCB2) was 7.00 to 8.00. Besides, the “side effects during the experiment” value in the series with Male Sprague-Dawley rats (CFA experiment) was “No side effects were observed”. Besides, the “effect on paw withdrawal threshold after intrapaw CFA” value with Male Sprague-Dawley rats (vs vehicle over twenty-four hours, FIG. 1) is listed as “anti-hyperalgesic effect”.
For the molecule `CNC(=O)[C@@H](NC(=O)c1nc(-c2ccc3c(c2)OCCO3)n2c1CN(C)CCC2)C(C)(C)C` [Compound 326, (S)-3-(2,3-dihydrobenzo[b][1,4]dioxin-6-yl)-N-(3,3-dimethyl-1-(methylamino)-1-oxobutan-2-yl)-8-methyl-6,7,8,9-tetrahydro-5H-imidazo[1,5-a][1,4]diazepine-1-carboxamide], the figures for the pEC50 (in series [1]; at rat CB2 receptor (rCB2)) were under 5.00 and 7.00 to 8.00, respectively.
The like results for `CN1CCn2c(-c3ccc(Cl)cc3F)nc(C(=O)N3CCC4(CCNC4=O)CC3)c2C1` [Compound 220, 8-(3-(4-chloro-2-fluorophenyl)-7-methyl-5,6,7,8-tetrahydroimidazo[1,5-a]pyrazine-1-carbonyl)-2,8-diazaspiro[4.5]decan-1-one] were, in that order, under 5.00 and under 5.00.
With `CNC(=O)[C@@H](NC(=O)c1nc(-c2cc(F)c(F)cc2OC(C)C)n2c1CN(C)CCC2)C(C)(C)C` [Compound 651, (S)-3-(4,5-difluoro-2-isopropoxyphenyl)-N-(3,3-dimethyl-1-(methylamino)-1-oxobutan-2-yl)-8-methyl-6,7,8,9-tetrahydro-5H-imidazo[1,5-a][1,4]diazepine-1-carboxamide], in series [1], the pEC50 was under 5.00.
As to `CN1CCCn2c(-c3cc(Cl)c(F)cc3F)nc(C(=O)N3CC(F)(F)C3)c2C1` [Compound 823, (3-(5-chloro-2,4-difluorophenyl)-8-methyl-6,7,8,9-tetrahydro-5H-imidazo[1,5-a][1,4]diazepin-1-yl)(3,3-difluoroazetidin-1-yl)methanone], the pEC50 in series [1] was under 5.00.
Turning to `CNC(=O)[C@H](CC(C)(C)C)NC(=O)c1nc(-c2ccc(F)c(Cl)c2)n2c1CN(C)CCC2` [Compound 546, (S)-3-(3-chloro-4-fluorophenyl)-N-(4,4-dimethyl-1-(methylamino)-1-oxopentan-2-yl)-8-methyl-6,7,8,9-tetrahydro-5-imidazo[1,5-a][1,4]diazepine-1-carboxamide], the pEC50 in series [1] is under 5.00.
On the same count and under the same terms, the figure for `CNC(=O)[C@@H](NC(=O)c1nc(-c2cccc(F)c2OC)n2c1CN(C)CCC2)C(C)(C)C` [Compound 657, (S)-N-(3,3-dimethyl-1-(methylamino)-1-oxobutan-2-yl)-3-(3-fluoro-2-methoxyphenyl)-8-methyl-6,7,8,9-tetrahydro-5H-imidazo[1,5-a][1,4]diazepine-1-carboxamide] is under 5.00.

The pEC50 is −log10 of the EC50, conventionally taken in molar units. Higher therefore signals a small EC50.
